What all share (type): cell-based, Erwinia chrysanthemii
Assay [1] concerns the target T1, F16′A ELIC (Dickeya chrysanthemi, UniProt P0C7B7, F246A).
T1 construct: expressed in transfected cells; host or cells: Xenopus laevis oocytes (cRNA injection)
The assay can be described thus: Inhibition of GABA-elicited currents of F16′A ELIC in Xenopus oocytes. Conditions: inhibition measured at the GABA EC50.

Assay [2] addresses T2, T6′S ELIC (Dickeya chrysanthemi, UniProt P0C7B7, T236S).
T2 construct: expressed in transfected cells; host or cells: Xenopus laevis oocytes (cRNA injection)
The assay is described as follows: Inhibition of GABA-elicited currents of T6′S ELIC in Xenopus oocytes.

Assay [3] deals with T3, T6′A ELIC (Dickeya chrysanthemi, UniProt P0C7B7, T236A).
T3 construct: expressed in transfected cells; host or cells: Xenopus laevis oocytes (cRNA injection)
The assay can be described thus: Inhibition of GABA-elicited currents of T6′A ELIC in Xenopus oocytes. The procedure: (§1) Xenopus laevis oocyte-positive females were purchased from NASCO (Fort Atkinson, WI) and maintained according to standard methods. Harvested stage V and VI Xenopus oocytes were washed in four changes of Ca^2+-free ND96 [96 mM NaCl, 2 mM KCl, 1 mM MgCl2, and 5 mM HEPES (pH 7.5)], defolliculated in 1.5 mg mL^–1 collagenase type 1A for approximately 2 h, washed again in four changes of ND96, and stored in ND96 at 16 °C containing 2.5 mM sodium pyruvate, […] gentamycin, and 0.7 mM theophylline.
(§2) ELIC (GenBank accession number ADN00343.1) was kindly provided by C. Ulens. For expression in Xenopus oocytes, it was cloned into pGEMHE with the signal sequence of the human α7 nACh receptor. […] Stage V and VI oocytes were injected with 20 ng of cRNA, and currents were recorded 1–3 days postinjection.
(§3) Using two-electrode voltage clamp, Xenopus oocytes were clamped at −60 mV using an OC-725 amplifier (Warner Instruments, Hamden, CT), Digidata 1322A, and the Strathclyde Electrophysiology Software Package (Department of Physiology and Pharmacology, University of Strathclyde, Glasgow, U.K.). Currents were recorded at 5 kHz and filtered at a frequency of 1 kHz. […] Inhibition by test compounds was measured at the GABA EC50 for each mutant. […]

Assay [4] addresses T4, F16′S ELIC (Dickeya chrysanthemi, UniProt P0C7B7, F246S).
T4 construct: expressed in transfected cells; host or cells: Xenopus laevis oocytes (cRNA injection)
The assay is described as follows: Inhibition of GABA-elicited currents of F16′S ELIC in Xenopus oocytes.

In assay [5] the target is T5, T6′S/F16′S ELIC (Dickeya chrysanthemi, UniProt P0C7B7, F246S/T236S).
T5 construct: expressed in transfected cells; host or cells: Xenopus laevis oocytes injected with cRNA transcribed from pGEMHE
T5 sequence (P0C7B7 1-321 T236S/F246S): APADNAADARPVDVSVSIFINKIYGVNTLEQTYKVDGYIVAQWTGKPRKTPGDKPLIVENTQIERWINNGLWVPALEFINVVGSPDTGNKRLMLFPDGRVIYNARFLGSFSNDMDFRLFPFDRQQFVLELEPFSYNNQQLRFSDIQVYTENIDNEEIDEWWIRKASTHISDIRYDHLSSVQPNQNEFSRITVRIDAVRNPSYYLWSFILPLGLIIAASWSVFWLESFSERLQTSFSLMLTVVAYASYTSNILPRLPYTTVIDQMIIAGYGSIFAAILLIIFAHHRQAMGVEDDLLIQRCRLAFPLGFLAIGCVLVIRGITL
The assay is described as follows: Inhibition of GABA-elicited currents of T6′S/F16′S ELIC in Xenopus oocytes. Conditions: inhibition measured at the GABA EC50.

Assay [6] concerns the target T6, F16′T ELIC (Dickeya chrysanthemi, UniProt P0C7B7, F246T).
T6 construct: expressed in transfected cells; host or cells: Xenopus laevis oocytes (cRNA injection)
The assay can be described thus: Inhibition of GABA-elicited currents of F16′T ELIC in Xenopus oocytes.

Assay [7] addresses T7, F16′E ELIC (Dickeya chrysanthemi, UniProt P0C7B7, F246E).
T7 construct: expressed in transfected cells; host or cells: Xenopus laevis oocytes (cRNA injection)
The assay is described as follows: Inhibition of GABA-elicited currents of F16′E ELIC in Xenopus oocytes.

The target of assay [8] is T8, F16′W ELIC (Dickeya chrysanthemi, UniProt P0C7B7, F246W).
T8 construct: expressed in transfected cells; host or cells: Xenopus laevis oocytes (cRNA injection)
The assay can be described thus: Inhibition of GABA-elicited currents of F16′W ELIC in Xenopus oocytes.

In assay [9] the target is T9, Q2′N ELIC (Dickeya chrysanthemi, UniProt P0C7B7, Q232N).
T9 construct: expressed in transfected cells; host or cells: Xenopus laevis oocytes (cRNA injection)
The assay is described as follows: Inhibition of GABA-elicited currents of Q2′N ELIC in Xenopus oocytes.

The target in assay [10] is T10, F16′D ELIC (Dickeya chrysanthemi, UniProt P0C7B7, F246D).
T10 construct: expressed in transfected cells; host or cells: Xenopus laevis oocytes (cRNA injection)
The assay can be described thus: Inhibition of GABA-elicited currents of F16′D ELIC in Xenopus oocytes. The procedure:
as §1, §2, §3

Assay [11] has as its target T7, F16′E ELIC. The assay is described as follows: GABA activation of F16′E ELIC, two-electrode voltage clamp in Xenopus oocytes. As for the experimental part:
as §1, §2, §3
Background: In two-electrode clamp one electrode senses voltage and the other passes current.

Assay [12] has as its target T11, F16′Q ELIC (Dickeya chrysanthemi, UniProt P0C7B7, F246Q).
T11 construct: expressed in transfected cells; host or cells: Xenopus laevis oocytes (cRNA injection)
The assay is described as follows: GABA activation of F16′Q ELIC, two-electrode voltage clamp in Xenopus oocytes.

Assay [13] deals with T6, F16′T ELIC. The assay can be described thus: GABA activation of F16′T ELIC, two-electrode voltage clamp in Xenopus oocytes.
In assay [14] the target is T10, F16′D ELIC. The assay is described as follows: GABA activation of F16′D ELIC, two-electrode voltage clamp in Xenopus oocytes.
The target in assay [15] is T9, Q2′N ELIC. The assay is described as follows: GABA activation of Q2′N ELIC, two-electrode voltage clamp in Xenopus oocytes.
The target of assay [16] is T3, T6′A ELIC. The assay is described as follows: GABA activation of T6′A ELIC, two-electrode voltage clamp in Xenopus oocytes.
In assay [17] the target is T4, F16′S ELIC. The assay is described as follows: GABA activation of F16′S ELIC, two-electrode voltage clamp in Xenopus oocytes.
Assay [18] concerns the target T12, F16′S/T6′S ELIC (Dickeya chrysanthemi, UniProt P0C7B7, F246S/T236S).
T12 construct: expressed in transfected cells; host or cells: Xenopus laevis oocytes (cRNA injection)
The assay can be described thus: GABA activation of F16′S/T6′S ELIC, two-electrode voltage clamp in Xenopus oocytes.

Assay [19] deals with T8, F16′W ELIC. The assay can be described thus: GABA activation of F16′W ELIC, two-electrode voltage clamp in Xenopus oocytes.
Assay [20] concerns the target T2, T6′S ELIC. The assay can be described thus: GABA activation of T6′S ELIC, two-electrode voltage clamp in Xenopus oocytes.
In assay [21] the target is T1, F16′A ELIC. The assay can be described thus: GABA activation of F16′A ELIC, two-electrode voltage clamp in Xenopus oocytes. The procedure: as §1, §2, §3
The target in assay [22] is T13, F16′L ELIC (Dickeya chrysanthemi, UniProt P0C7B7, F246L).
T13 construct: expressed in transfected cells; host or cells: Xenopus laevis oocytes (cRNA injection)
The assay can be described thus: GABA activation of F16′L ELIC, two-electrode voltage clamp in Xenopus oocytes. The procedure: as §1, §2, §3

For assay [23], the target named is T14, F16′Y ELIC (Dickeya chrysanthemi, UniProt P0C7B7, F246Y).
T14 construct: expressed in transfected cells; host or cells: Xenopus laevis oocytes (cRNA injection)
The assay can be described thus: GABA activation of F16′Y ELIC, two-electrode voltage clamp in Xenopus oocytes.

Where two headings read alike, the source gives them in different places.

Take `C=C(C)[C@@H]1[C@H]2OC(=O)[C@@H]1[C@]1(O)C[C@H]3O[C@]34C(=O)O[C@H]2[C@]14C` [PXN, Picrotoxinin]: the IC50 in assay [1] (IC50, F16′A ELIC) was 16 µM; in [1] (pIC50, F16′A ELIC) it was 16.6 µM; in assay [2] it was 68 µM; in [3], 95 µM; in assay [4] it was 4.5 µM; in assay [5] (IC50, T6′S/F16′S ELIC) it was 44000 nM. Also, the IC50 was determined as 7.2 µM in [6]; 26.9 µM in assay [7]; 52 µM in [8]; 44 µM in assay [9]; 9.4 µM in assay [10].
As for `NCCCC(=O)O` [GABA, γ-aminobutyric acid], the EC50 in [11] (GABA EC50, F16′E ELIC) was 26 mM; in assay [11] (GABA pEC50, F16′E ELIC), 25.7 mM; in assay [12], 7.76 mM; in assay [13] (GABA EC50, F16′T ELIC) it was 11 mM; in assay [13] (GABA pEC50, F16′T ELIC), 11.5 mM; in [14], 2.09 mM. Also, the EC50 in assay [15] was 1.82 mM; in [16] (GABA EC50, T6′A ELIC), 800 µM; in [16] (GABA pEC50, T6′A ELIC) it was 851 µM; in assay [17] it was 7.1 mM; in assay [18] it was 6.4 mM; in assay [19], 2.29 mM. The EC50 in [20] is 1.78 mM; in assay [21], 4.9 mM; in assay [22] (GABA EC50, F16′L ELIC) it was 51 mM; in [22] (GABA pEC50, F16′L ELIC), 51.3 mM; in [23] it was 7.5 mM.
As for `CCCC(C(=O)OCCN(CC)CC)(c1ccccc1)c1ccccc1` [proadifen], the IC50 in [2] (T6′S ELIC, inhibition measured at the GABA EC50, read-out: pIC50 (converted)) was 2.57 µM; in assay [4] (F16′S ELIC, inhibition measured at the GABA EC50, read-out: IC50), 5.1 µM; in assay [5] (T6′S/F16′S ELIC, read-out: IC50) it was 900 nM; in assay [5] (T6′S/F16′S ELIC, read-out: pIC50 (converted)), 933 nM.

The EC50 is the concentration that produces a half-maximal response. High values mean weaker potency, low ones greater potency.

(Values after PMC4312132, “Phenylalanine in the Pore of the Erwinia Ligand-Gated Ion Channel Modulates Picrotoxinin Potency but Not Receptor Function” (Biochemistry, 2014).)
